Laboratory results taken from the supplement of paper PMC13380429.

Tests used:
Settings in all cases: 72 h
HepG2 [1] = experiment: cell viability relative to DMSO; higher = less toxic
Vero E6 [2] = experiment: as above
U2OS [3] = experiment: as above
Calu-3 [4] = experiment: as above
Caco-2 [5] = experiment: as above
HepG2 [6] = experiment: relative viability EC50 (midpoint between 100% and the lowest measured viability); higher = less toxic
Vero E6 [7] = experiment: as above
U2OS [8] = experiment: as above
Calu-3 [9] = experiment: as above
Caco-2 [10] = experiment: as above
HepG2 [11] = experiment: drug sensitivity score (DSS) for viability; higher = more toxic; extreme values may be limits of the assay
Vero E6 [12] = experiment: as above
U2OS [13] = experiment: as above
Calu-3 [14] = experiment: as above
Caco-2 [15] = experiment: as above

| SMILES | cell viability (HepG2 [1]; 1 nM) | cell viability (HepG2 [1]; 10 nM) | cell viability (HepG2 [1]; 100 nM) | cell viability (HepG2 [1]; 1000 nM) | cell viability (HepG2 [1]; 10000 nM) | cell viability (Vero E6 [2]; 1 nM) | cell viability (Vero E6 [2]; 10 nM) | cell viability (Vero E6 [2]; 100 nM) | cell viability (Vero E6 [2]; 1000 nM) | cell viability (Vero E6 [2]; 10000 nM) | cell viability (U2OS [3]; 1 nM) | cell viability (U2OS [3]; 10 nM) | cell viability (U2OS [3]; 100 nM) | cell viability (U2OS [3]; 1000 nM) | cell viability (U2OS [3]; 10000 nM) | cell viability (Calu-3 [4]; 1 nM) | cell viability (Calu-3 [4]; 10 nM) | cell viability (Calu-3 [4]; 100 nM) | cell viability (Calu-3 [4]; 1000 nM) | cell viability (Calu-3 [4]; 10000 nM) | cell viability (Caco-2 [5]; 1 nM) | cell viability (Caco-2 [5]; 10 nM) | cell viability (Caco-2 [5]; 100 nM) | cell viability (Caco-2 [5]; 1000 nM) | cell viability (Caco-2 [5]; 10000 nM) | relative viability EC50 (HepG2 [6]) | relative viability EC50 (Vero E6 [7]) | relative viability EC50 (U2OS [8]) | relative viability EC50 (Calu-3 [9]) | relative viability EC50 (Caco-2 [10]) | drug sensitivity score (HepG2 [11]) | drug sensitivity score (Vero E6 [12]) | drug sensitivity score (U2OS [13]) | drug sensitivity score (Calu-3 [14]) | drug sensitivity score (Caco-2 [15]) |
| --- | --- | --- | --- | --- | --- | --- | --- | --- | --- | --- | --- | --- | --- | --- | --- | --- | --- | --- | --- | --- | --- | --- | --- | --- | --- | --- | --- | --- | --- | --- | --- | --- | --- | --- | --- |
| CC1(C)O[C@H]2CC(=O)OC[C@]23[C@H]2CC[C@@]4(C)[C@H](c5ccoc5)OC(=O)[C@H]5O[C@]54[C@]2(C)C(=O)C[C@@H]13 [limonin] | 102% | 105% | 91.5% | 111% | 97.2% | 97.1% | 97.1% | 93.7% | 98.6% | 104% | 95.6% | 98.6% | 107% | 99% | 100% | 104% | 89.5% | 109% | 99.6% | 102% | 97.5% | 95.8% | 106% | 98.5% | 105% | > 10 µM | > 10 µM | > 10 µM | > 10 µM | > 10 µM | 0 | 0 | 0 | 0 | 0 |
| Nc1ccc(O)c(C(=O)O)c1 [mesalazine] | 112% | 100% | 103% | 104% | 97.3% | 105% | 104% | 103% | 102% | 92.2% | 103% | 101% | 103% | 96.8% | 104% | 109% | 100% | 107% | 96.5% | 102% | 112% | 98.6% | 109% | 97.7% | 100% | > 10 µM | > 10 µM | > 10 µM | > 10 µM | > 10 µM | 0 | 0 | 0 | 0 | 0 |
| CCC1(CC)C(=O)NC(=O)N(C)C1=O [metharbital] | 91.8% | 104% | 95.9% | 102% | 103% | 93% | 96.8% | 94.1% | 92.3% | 103% | 100% | 93.4% | 99.1% | 92.9% | 97.1% | 110% | 92.6% | 110% | 98.4% | 95% | 94.3% | 97.7% | 104% | 102% | 93.1% | > 10 µM | > 10 µM | > 10 µM | > 10 µM | > 10 µM | 0 | 0 | 0 | 0 | 0 |
| CN1C(CCl)Nc2cc(Cl)c(S(N)(=O)=O)cc2S1(=O)=O (stereo not given) [methyclothiazide] | 96.3% | 96.1% | 106% | 104% | 105% | 94.3% | 96.6% | 94.8% | 99.4% | 99.7% | 104% | 96.9% | 101% | 98.4% | 102% | 103% | 91.8% | 97.9% | 105% | 108% | 101% | 103% | 104% | 103% | 94.9% | > 10 µM | > 10 µM | > 10 µM | > 10 µM | > 10 µM | 0 | 0 | 0 | 0 | 0 |
| O=C(O)Cc1cccc2c(=O)cc(-c3ccccc3)oc12 [mitoflaxone] | 98.3% | 92.3% | 93.2% | 103% | 114% | 96.9% | 99.8% | 95.7% | 94.9% | 107% | 99.5% | 98% | 97.3% | 102% | 104% | 96% | 102% | 97% | 95.8% | 112% | 86% | 101% | 89.6% | 104% | 112% | > 10 µM | > 10 µM | > 10 µM | > 10 µM | > 10 µM | 0 | 0 | 0 | 0 | 0 |
| NC/C(=C/F)CCc1ccc(F)cc1 [mofegiline] | 98% | 91.5% | 87.9% | 90% | 97.4% | 92.5% | 102% | 90.5% | 91.7% | 95% | 98.6% | 99.3% | 95.7% | 96.2% | 96.3% | 102% | 97.7% | 102% | 104% | 88.4% | 89.5% | 96.7% | 85.8% | 90.4% | 92.4% | > 10 µM | > 10 µM | > 10 µM | > 10 µM | > 10 µM | 0 | 0 | 0 | 0 | 0 |
| Oc1ccc(OCc2ccccc2)cc1 [monobenzone] | 91.6% | 94.9% | 109% | 103% | 90.2% | 95.8% | 97.4% | 97.3% | 100% | 100% | 107% | 96.9% | 94.9% | 102% | 110% | 97.5% | 95.5% | 94.6% | 98.9% | 94.5% | 99.2% | 92.6% | 103% | 107% | 88.3% | > 10 µM | > 10 µM | > 10 µM | > 10 µM | > 10 µM | 0 | 0 | 0 | 0 | 0 |
| CN(C(=O)/C=C/c1ccoc1)[C@@H]1CC[C@@]2(O)[C@H]3Cc4ccc(O)c5c4[C@@]2(CCN3CC2CC2)[C@H]1O5 [nalfurafine] | 102% | 104% | 95.5% | 97.7% | 102% | 90.6% | 101% | 89.5% | 95.6% | 102% | 100% | 99.8% | 100% | 103% | 105% | 92.2% | 103% | 106% | 96.8% | 91.3% | 104% | 92.9% | 99% | 107% | 104% | > 10 µM | > 10 µM | > 10 µM | > 10 µM | > 10 µM | 0 | 0 | 0 | 0 | 0 |
| Cn1cc(C(=O)c2cccc3ccccc23)cc1C(=O)O [napirimus] | 101% | 97.9% | 103% | 99.8% | 94.8% | 92.9% | 99.7% | 95.2% | 105% | 99% | 104% | 100% | 101% | 98.3% | 98.4% | 98.7% | 104% | 100% | 101% | 104% | 99.3% | 92% | 95.4% | 96.5% | 85.6% | > 10 µM | > 10 µM | > 10 µM | > 10 µM | > 10 µM | 0 | 0 | 0 | 0 | 0 |
| Cn1c(NCCN(CCO)CCCc2ccc([N+](=O)[O-])cc2)cc(=O)n(C)c1=O [nifekalant] | 109% | 106% | 94% | 86.1% | 109% | 89.8% | 102% | 91.6% | 102% | 104% | 95.1% | 94.3% | 98.9% | 97.7% | 99.4% | 96.2% | 103% | 104% | 110% | 95.3% | 107% | 96.7% | 86.9% | 90.8% | 92.5% | > 10 µM | > 10 µM | > 10 µM | > 10 µM | > 10 µM | 0 | 0 | 0 | 0 | 1.8 |
| CNCCC=C1c2ccccc2C=Cc2ccccc21 [norcyclobenzaprine] | 94.7% | 93.4% | 102% | 98.3% | 89.3% | 95.9% | 97.5% | 92.6% | 94.5% | 95.2% | 102% | 98.1% | 100% | 106% | 100% | 109% | 96.6% | 103% | 105% | 84.8% | 94.2% | 96.4% | 97.7% | 102% | 90.5% | > 10 µM | > 10 µM | > 10 µM | > 10 µM | > 10 µM | 0 | 0 | 0 | 0.1 | 0 |
| C[C@@H]1CC(=O)c2c(ccc3c2C(=O)c2cccc(O)c2C3=O)C1 [ochromycinone] | 87.4% | 91% | 96.6% | 96.5% | 76% | 100% | 100% | 104% | 93.3% | 85.8% | 101% | 100% | 93.9% | 99.7% | 99.9% | 100% | 104% | 103% | 104% | 92.8% | 107% | 96.1% | 99.6% | 110% | 112% | > 10 µM | > 10 µM | > 10 µM | > 10 µM | > 10 µM | 1.4 | 0.6 | 0 | 0 | 0 |
| O=C(O)CCc1nc(-c2ccccc2)c(-c2ccccc2)o1 [oxaprozin] | 104% | 99.1% | 107% | 109% | 92.1% | 99% | 97.5% | 94.8% | 104% | 97.2% | 102% | 95.4% | 101% | 94.2% | 96.8% | 98.3% | 92.1% | 102% | 96.8% | 102% | 94.7% | 97.1% | 100% | 108% | 101% | > 10 µM | > 10 µM | > 10 µM | > 10 µM | > 10 µM | 0 | 0 | 0 | 0 | 0 |
